Drawing on patent US11478474B2, “2-(3′-(hydroxymethyl)-1-methyl-5-((5-(2-methyl-4-(oxetan-3-yl)piperazin-1-yl)pyridin-2-yl)amino)-6-oxo-1,6-dihydro-[3,4′-bipyridin]-2′-yl)-7,7-dimethyl-7,8-dihydro-2H-cyclopenta[4,5]pyrrolo[1,2-a]pyrazin-1(6H)-one as a BTK inhibitor” (HUTCHISON MEDIPHARMA LIMITED, priority 2020, dated 2022), this text covers IC50 for 24 compounds.

Chain of phosphorylated BTK in Ramos cells (Q06187 whole entry): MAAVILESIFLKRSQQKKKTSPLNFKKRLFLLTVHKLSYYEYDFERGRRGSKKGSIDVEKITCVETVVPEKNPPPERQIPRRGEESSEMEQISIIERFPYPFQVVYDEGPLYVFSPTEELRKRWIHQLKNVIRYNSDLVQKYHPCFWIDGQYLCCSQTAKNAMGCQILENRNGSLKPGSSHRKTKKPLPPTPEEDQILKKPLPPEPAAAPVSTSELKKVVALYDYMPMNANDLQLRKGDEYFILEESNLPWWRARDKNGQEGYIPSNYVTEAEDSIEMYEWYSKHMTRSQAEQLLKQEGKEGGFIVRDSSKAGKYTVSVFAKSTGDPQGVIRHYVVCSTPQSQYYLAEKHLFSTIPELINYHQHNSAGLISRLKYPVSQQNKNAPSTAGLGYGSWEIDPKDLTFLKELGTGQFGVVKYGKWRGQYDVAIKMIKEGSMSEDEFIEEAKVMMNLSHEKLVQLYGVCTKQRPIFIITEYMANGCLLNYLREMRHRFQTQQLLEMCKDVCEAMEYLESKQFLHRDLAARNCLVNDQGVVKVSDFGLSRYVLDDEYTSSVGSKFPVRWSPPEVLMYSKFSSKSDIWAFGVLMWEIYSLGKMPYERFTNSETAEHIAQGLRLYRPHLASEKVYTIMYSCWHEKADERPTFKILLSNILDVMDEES

In the first experiment the target is BTK recombinant protein (Homo sapiens (Human), UniProt Q06187). Nature of the experiment: Determination of biochemical BTK (Z'-LYTE kinase assay).
Chain of BTK recombinant protein (Q06187 whole entry): as above
Conditions: not given
The text has this:
Example 2 Determination of Biochemical BTK
(§1) 1. Reagents and Materials
BTK recombinant protein: Invitrogen, Cat #PV3363;
Z′-LYTE® kinase test kit-tyrosine 1 peptide: Invitrogen, Cat #PV3190;
Z′-LYTE® biochemical assay employs a fluorescence resonance energy transfer (FRET)—based, coupled-enzyme format and is based on the differential sensitivity of phosphorylated and non-phosphorylated peptides to proteolytic cleavage. Both ends of the short peptide substrate are labeled with two fluorescent groups to form a FRET paired combination. In the primary reaction (the Kinase Reaction), the kinase transfers the γ-phosphate of ATP to a single […] residue on the short peptide substrate. In the secondary reaction (the development reaction), the non-phosphorylated short peptides were recognized and cleaved by a site-specific protease (the development reagent). Phosphorylated short peptides can resist such cleavage. Cleavage of short peptides can disrupt the donor (such as coumarin) and receptor fluorophores (fluorescein) on the short peptides, while the phosphorylated short peptides can maintain FRET. The calculation method of the ratio is as follows, and the ratio of the respective emission signals generated by the donor fluorophores emitted (after excitation at 400 nm) to the receptors is calculated. Emission signal ratio=emitted light by coumarin (445 nm)/emitted light by fluorescein (520 nm). If the FRET short peptide is phosphorylated (such as no kinase inhibitor), the emitted light ratio will remain in a lower level. If the FRET short peptide is non-phosphorylated (such as kinase inhibitor), the emitted light ratio will be in a higher level. In this way, the inhibitory effects of different compound inhibitors on BTK kinase activity would be distinguished.
The experiment were carried out according to the instructions of the Z′-LYTE® kinase test kit-tyrosine 1 peptide. Reagent preparation: 1.33× kinase buffer: 5× kinase buffer was diluted with water to 1.33× kinase buffer; an enzyme solution: the kinase was dissolved in 1.33× kinase buffer with the final working concentration being 3.32 nM; a short peptide solution: a short peptide stock solution (1 mM dissolved in DMSO) was dissolved in 1.33× kinase buffer with the final working concentration being 2 μM; Z′-LYTE Tyr01 phosphorylated short peptide solution, 0.6 μl of stock solution (1 mM dissolved in DMSO) was dissolved in 149.4 μl of 1.33× kinase buffer; an ATP solution: an ATP stock solution (10 mM aqueous solution) was dissolved in 1.33× kinase buffer with the final working concentration being 32 μM; a color-developing solution: color-developing solution B was dissolved in color-developing buffer with the final working concentration being 1× color-developing solution; 4× compound preparation: the compound was diluted in 3-fold gradient concentration to finally obtain 4% DMSO aqueous solution containing different concentrations of the compound, with the final working concentration being 3000, 1000, 333.33, 111.11, 37.04, 12.35, 4.12, 1.37 nM, 8 concentration points in total.
Specific steps of the experiment: In the experiment, there were three control groups, each with 8 replicate wells, which were C1 100% inhibition group (no ATP), C2 0% inhibition group (with ATP), and C3 100% phosphorylation group, respectively. 2.5 μl of serially diluted compound was added to each well of a 384-well plate, with double replicate wells, and 4% DMSO solution was added to wells C1, C2, and C3. After that, except for wells C3, 2.5 μl of BTK enzyme solution was added to each remaining well, which was left to stand at 4° C. for 30 minutes. After that, except for wells C3, 2.5 μl of short peptide solution was added to each well, and 5 μl of phosphorylated short peptide solution was added to each of wells C3. 2.5 μl of 1.33× kinase buffer was added to each of wells C1 and C3, and 2.5 μl of ATP solution was added to each of the remaining wells. […]
On to `C[C@H]1CN(C#N)CCN1c1ccc(Nc2cc(-c3ccnc(-n4ccn5c6c(cc5c4=O)CC(C)(C)C6)c3CO)cn(C)c2=O)nc1` [Compound 108], for which the IC50 – broadly, the concentration at which inhibition is half-maximal – is 7 nM. Still for that read-out and setting: to `Cc1ccc2c(c1)cc1c(=O)n(-c3nccc(-c4cc(Nc5ccc(N6CCN(C7COC7)C[C@@H]6C)cn5)c(=O)n(C)c4)c3CO)ccn12` [Compound 188] belongs 41 nM; to `Cn1cc(-c2ccnc(-n3ccn4c5c(cc4c3=O)CCC5)c2CO)cc(Nc2cc3n(n2)CCOC3)c1=O` [Compound 155], 122 nM; to `COc1ccc(Nc2cc(-c3ccnc(-n4ccn5c6c(cc5c4=O)CCC6)c3CO)cn(C)c2=O)nc1` [Compound 146], 624 nM. On the same count and under the same terms, to `C[C@H]1CN(C2COC2)CCN1c1ccc(Nc2cc(-c3ccnc(-n4ccn5c6c(cc5c4=O)CC(C)(C)C6)c3CO)cn(C)c2=O)c(F)c1` [Compound 103] belongs > 3000 nM; to `Cn1cc(-c2ccnc(-n3ccn4c5c(cc4c3=O)CC(C)(C)C5)c2CO)cc(NC(=O)c2ccccc2)c1=O` [Compound 131], 2010 nM; to `COCCN1CCn2nc(Nc3cc(-c4ccnc(-n5ccn6c7c(cc6c5=O)CCC7)c4CO)cn(C)c3=O)cc2C1` [Compound 148], 112 nM. Same read-out and setting: under `COCc1cc(Nc2cc(-c3ccnc(-n4ccn5c6c(cc5c4=O)CCC6)c3CO)cn(C)c2=O)nn1C` [Compound 153] stands 117 nM; under `COCc1c(-c2cc(N(C)c3ccc(N4CCN(C5COC5)C[C@@H]4C)cn3)c(=O)n(C)c2)ccnc1-n1ccn2c3c(cc2c1=O)CC(C)(C)C3` [Compound 223, (S)-2-(3′-(methoxymethyl)-1-methyl-5-(methyl(5-(2-methyl-4-(oxetan-3-yl)piperazin-1-yl)pyridin-2-yl)amino)-6-oxo-1,6-dihydro-[3,4′-bispyridin]-2′-yl)-7,7-dimethyl-7,8-dihydro-2H-cyclopenta[4,5]pyrrolo[1,2-a]pyrazin-1(6H)-one], > 3000 nM.

As for `[2H]C(O)c1c(-c2cc(Nc3ccc(N4CCN(C5COC5)C[C@@H]4C)cn3)c(=O)n(C([2H])([2H])[2H])c2)ccnc1-n1ccn2c3c(cc2c1=O)CC(C)(C)C3` (some centres unmarked) [Compound 38], the IC50 is < 1 nM. Same read-out and setting: to `C[C@H]1COCCN1c1cnc(Nc2cc(-c3ccnc(-n4ncn5c6c(cc5c4=O)CC(C)(C)C6)c3CO)cn(C)c2=O)nc1` [Compound 195] belongs 38 nM. The same measure, in the same setting: to `COC1CN(c2ccc(Nc3cc(-c4ccnc(-n5ccn6c7c(cc6c5=O)CCC7)c4CO)cn(C)c3=O)nc2)C1` [Compound 152] belongs 353 nM. Still for that read-out and setting: under `COCCN1CCn2nc(Nc3cc(-c4ccnc(-n5cnn6c7c(cc6c5=O)CCCC7)c4CO)cn(C)c3=O)cc2C1` [Compound 194] stands 65 nM. For the compound `CCn1cc(Nc2cc(-c3ccnc(-n4ccn5c6c(cc5c4=O)CCC6)c3CO)cn(C)c2=O)nn1` [Compound 138], the concentration for half-maximal inhibition (IC50) was 218 nM. On the same count and under the same terms, under `Cn1cc(-c2ccnc(-n3ccn4c5c(cc4c3=O)CC(C)(C)C5)c2CO)cc(N)c1=O` [Compound 98, 2-(5-amino-3′-(hydroxymethyl)-1-methyl-6-oxo-1,6-dihydro-[3,4′-bispyridin]-2′-yl)-7,7-dimethyl-7,8-dihydro-2H-cyclopenta[4,5]pyrrolo[1,2-a]pyrazin-1(6H)-one] stands 1270 nM; under `CC(O)c1c(-c2cc(Nc3ccc(N4CCN(C5COC5)C[C@@H]4C)cn3)c(=O)n(C)c2)ccnc1-n1ccn2c3c(cc2c1=O)CC(C)(C)C3` (mixture of isomers) [Compound 114], > 3000 nM; under `C[C@@H]1CN(c2ccc(Nc3cc(-c4ccnc(-n5ccn6c7c(cc6c5=O)CC(C)(C)C7)c4CO)nn(C)c3=O)nc2)[C@@H](C)CN1C1COC1` [Compound 201], 5 nM. As to `Cn1cc(-c2ccnc(-n3ccn4c5c(cc4c3=O)CC(C)(C)C5)c2CO)cc(NC(=O)C2CCC2)c1=O` [Compound 130], the IC50 came to 316 nM. In the case of `Cc1nn(-c2nccc(-c3cc(Nc4ccc(N5CCN(C6COC6)C[C@@H]5C)cn4)c(=O)n(C)c3)c2CO)c(=O)c2cc3c(n12)CCCC3` [Compound 158], the IC50 is 194 nM. Still for that read-out and setting: under `CCC(=O)Nc1cc(-c2ccnc(-n3ccn4c5c(cc4c3=O)CC(C)(C)C5)c2CO)cn(C)c1=O` [Compound 88] stands 134 nM. Still for that read-out and setting: under `C[C@H]1CN(C2COC2)CCN1c1cnc(Nc2cc(-c3ccnc(-n4ncn5c6c(cc5c4=O)CC(C)(C)C6)c3CO)cn(C)c2=O)nc1` [Compound 197] stands 66 nM; under `Cc1ccc(Nc2cc(-c3ccnc(-n4ccn5c6c(cc5c4=O)CCC6)c3CO)cn(C)c2=O)nn1` [Compound 147], 1560 nM.

Another experiment concerns the target phosphorylated BTK in Ramos cells (Homo sapiens (Human), UniProt Q06187). Put plainly: Determination of phosphorylated BTK in Ramos cells (BTK phospho-Y223 HTRF). The settings on record: anti-human IgM + hydrogen peroxide stimulation. Format: cell-based. As to the method: Determination of Phosphorylated BTK in Ramos Cells
as §1
Ramos cells: Ramos cells were purchased from American Standard Biological Collection Center ATCC Cell Bank, PRMI 1640 medium containing L-glutamine, 1.5 g/L of sodium bicarbonate, 2.383 g/L of HEPES solution, 0.11 g/L of sodium pyruvate and 4.5 g/L of glucose was used, added 10% fetal bovine serum FBS, and placed in a 5% CO2, 37° C. cell incubator for normal culture;
Phosphorylated BTK HTRF detection kit (BTK phospho-Y223 HTRF kit): Cisbio, Cat #63ADK017PEH;
Ramos cells were starved in PRMI 1640 medium with 1% FBS for 2 hours. The starved Ramos cells were diluted with Hank's balanced salt solution to 5.0×10^6 cells/ml, seeded in a 96-well plate with 20 μL/well (1.0×10^5 cells/well), and cultured in a 5% CO2, 37° C. cell incubator. After culturing for 1 hour, the test compound was diluted with Hank's balanced salt solution in 4-fold gradient to the corresponding concentrations, and then 5 μL/well of the diluted test compound with different concentrations (the final concentrations of the test compound were 3.0, 0.75, 0.188, 0.047, 0.012, 0.0029, 0.0007 and 0.00018 μM, and the final concentration of DMSO was 0.3%, double replicate wells) or 5 μL/well of control solution (1.5% DMSO, 8 replicate wells) were added to 20 μL/well of cell culture system, which incubated together for another hour, then 5 μL/well of a mixed solution of human immunoglobulin M (final concentration was 10 μg/mL) and hydrogen peroxide (final concentration was 3.3 mM) diluted with Hank's balanced salt solution was added to the treating wells for the test compound and the control treating wells for anti-human immunoglobulin M, and 5 μL/well of Hank's balanced salt solution was added to negative control treating wells. The plate was incubated in a 5% CO2, 37° C. cell incubator for 10 minutes.
10 μL/well of cell lysis buffer was added to each well of a 96-well plate, which was mixed well and lysed at room temperature for 30 minutes. 16 μL/well of lysis buffer was pipetted to a new 384 well plate, and then added 4 μL/well of phosphorylated BTK antibody, centrifuged (1000 rpm) for 1 minute, then shaken for 1 minute, further centrifuged (1000 rpm) for 1 minute, and finally placed in a constant temperature incubator overnight. Detection was performed on the next day.
The 384 well plate incubated overnight in the constant temperature incubator was taken out to detect the luminescence signal using the Envision microwell plate reader at the […]. The reading value at 665 nm/615 nm of each well multiplied by 104 was used as the signal value of each well.
The average signal value of the wells supplemented with the mixed solution of human immunoglobulin M (final concentration was 10 μg/mL) and hydrogen peroxide (final concentration was 3.3 mM) without the test compound was regarded as the high value, and the average signal value of the wells without immunoglobulin M stimulation and without the test compound was regarded as the low value. According to the signal value in each well, the inhibition ratio (%) of each concentration of compounds was calculated, and the 205 model in XL-Fit 5.3 software (ID Business Solutions Limited) was used to obtain an IC50 value.
The inhibition ratio is calculated as follows: inhibition ratio (%)=100%−{(treating well for the test compound−negative control treating well)/(control treating well for anti-human immunoglobulin M−negative control treating well)}×100%, wherein,
Treating well for the test compound: represents the signal value of Ramos cells treated with anti-human immunoglobulin M, hydrogen peroxide and the test compound.
Control treating well for anti-human immunoglobulin M: represents the signal value of Ramos cells treated with anti-human immunoglobulin M, hydrogen peroxide but without the test compound. […]
For orientation: In TR-FRET formats the signal depends on donor and acceptor labels being close together.
Turning to `C[C@H]1CN(C#N)CCN1c1ccc(Nc2cc(-c3ccnc(-n4ccn5c6c(cc5c4=O)CC(C)(C)C6)c3CO)cn(C)c2=O)nc1` [Compound 108], the IC50 amounted to 1 nM.

Turning to `Cc1ccc2c(c1)cc1c(=O)n(-c3nccc(-c4cc(Nc5ccc(N6CCN(C7COC7)C[C@@H]6C)cn5)c(=O)n(C)c4)c3CO)ccn12` [Compound 188], the IC50 was 39 nM. On the same count and under the same terms, under `CN1CCn2nc(Nc3cc(-c4ccnc(-n5ccn6c7c(cc6c5=O)CC(C)(C)C7)c4CO)cn(C)c3=O)cc2C1` [Compound 69, 2-(3′-(hydroxymethyl)-1-methyl-5-((5-methyl-4,5,6,7-tetrahydropyrazolo[1,5-a]pyrazin-2-yl)amino)-6-oxo-1,6-dihydro-[3,4′-bispyridin]-2′-yl)-7,7-dimethyl-7,8-dihydro-2H-cyclopenta[4,5]pyrrolo[1,2-a]pyrazin-1(6H)-one] stands 2 nM; under `COCC(C)n1cc(Nc2nc(-c3ccnc(-n4ccn5c6c(cc5c4=O)CC(C)(C)C6)c3CO)cn(C)c2=O)nn1` (centres unmarked) [Compound 42], 341 nM.
